The values that follow come from patent US12171226B2, “Development of pheromone assisted techniques to improve efficacy of insecticide sprays targeting urban pest ant species” (The Regents of the University of California, priority 2012, dated 2024).

SMILES strings stand for the structures.

Test [1] concerns Argentine ant populations. To be noted: relatively large quantities, stand-alone treatment, field; cited from earlier work.
Test [2] deals with Argentine ants. Nature of the test: Experiment #1: field attraction of ants from an existing trail to a pheromone-sprayed sand patch. The class given is in vivo, Linepithema humile. The method, then: Experiment #1 was conducted to observe would synthetic trail pheromone spray deposit attract the ants from an existing trail? The study was conducted in the biological control grove at the University of California, Riverside, in April 2012. The site supports a large population of Argentine ants, primarily because of the absence of chemical insecticide use and the existence of honeydew-producing insects in the citrus trees. Five different trails of Argentine ants were located, which were relatively straight and at least 30-cm long, and originating from different nests. By using these trails as “existing trails,” tests were performed to see if the “pheromone assisted technique” would attract ants from the existing trails. For the pheromone treatment, two patches of sand were made, one on each side of the existing trail by evenly spreading 52.5 grams (g) of sand in a square (20 by 20 cm). The distance between two patches was about 5 cm. One patch served as a treatment, and the other one served as a control. For the treatment, 1 mg of the synthetic pheromone compound [(Z)-9-hexadecenal] dissolved in 1 ml of ethyl alcohol was mixed with 500 ml of deionized water. […]
Each sand patch was treated with four sprays (each spray targeting 10 by 10 cm areas on one corner). […] The numbers of ants on the 20 by 20-cm sand patches were counted at 2 and 4 min post-treatment using the photographs. […]

The test system of test [3] is Argentine ants. Description: Experiment #2: field attraction of ants from nest entrance and nearby trails to a pheromone-sprayed sand patch. In kind it is in vivo, Linepithema humile. The method, then: Experiment #2 was conducted to observe would synthetic trail pheromone spray deposit attract the ants from a nest entrance and nearby trails? The study was conducted in the biological control grove at the University of California, Riverside, in Apr. 23, 2012. Nest entrances of Argentine ant colonies were located, which had active trails associated with them (one nest entrance per nest). By using the nest entrance and trails associated with the nest entrance, the pheromone assisted technique” was tested to see if it would attract ants from the nest entrance and nearby trails. For the pheromone treatment, two patches were made of sand on both sides of the nest entrance by evenly spreading 52.5 g of sand in a square (20 by 20 cm). The distance between the two patches was about 5 cm. The method and rate of application were identical with those of experiment #1.
Both sand patches were photographed at 1, 2, and 3 min after application of sprays. The study was replicated ten times by using a different nest entrance for each replicate. The numbers of ants on the 20 by 20-cm sand patches were counted at 1, 2, and 3 minute post-treatment using the photographs. The average values were compared between treatment and control with a paired T-test (one-sided, Analytical Software 2008). […]

The test system of test [4] is Argentine ants. Nature of the test: Experiment #3: laboratory colony mortality after spray applied away from the ant nest. In kind it is in vivo, Linepithema humile. To be noted: 0.01% fipronil and/or approx. 12 ng per cm^2 (Z)-9-hexadecenal; 3 ml on 491 cm^2 sand; colony about 731 ants; n=5-6. The method, then: Experiment #3 was conducted to observe would co-application of synthetic trail pheromone improve the efficacy of fipronil insecticide spray applied away from the ant nest? A laboratory study was conducted to determine if the efficacy of an insecticide spray (fipronil) can be improved by adding with a synthetic attractant trail pheromone. Argentine ants were collected from a citrus grove (biological control grove) on the University of California, Riverside, campus. Ant nests were excavated from the ground and transported to a laboratory chamber where they were extracted from the soil. Laboratory stock colonies were maintained in plastic boxes (26.5 by 30 by 10 cm) with the inner sides coated with Teflon™ Fluoropolymer resin, type 30, DuPont Polymers) to prevent ants from escaping. Each colony was provided with two or three artificial nests constructed from plaster-filled petri dishes (9 cm in diameter by 1.5 cm in depth) formed with a 5-cm-diameter by 1-cm-deep cylindrical area in the center of the dish to serve as a nesting space. […]
Three different spray preparations were tested: (a) pheromone+fipronil, (b) fipronil only, and (c) pheromone only. […] The dead ants were removed from the colony box and counted daily. […]

Take `CCCCCC/C=C\CCCCCCCC=O` [(Z)-9-hexadecenal]: the “impact on Argentine ant populations” value in test [1] is recorded as “negligible impact”. Besides, the “number of ants on treated sand patch relative to control patch” value is recorded as “more than two times higher” in the test on Argentine ants [2] (approx. 12 ng per cm^2, paired T-test P=0.033) and “more than five times higher” in the test on Argentine ants [3] (approx. 12 ng per cm^2, paired T-test P<0.001). Moreover, the “average number of ants on the 20 by 20-cm sand patch (mean±SEM)” value came out at 10.4±4.0 with Argentine ants [2] (approx. 12 ng per cm^2 on sand, counts at 2 and 4 min post-treatment averaged, 5 replicates, existing trail); 18.1±3.0 with Argentine ants [3] (approx. 12 ng per cm^2 on sand, counts at 1, 2 and 3 min post-treatment, 10 replicates, nest entrance and nearby trails). The “cumulative number of dead ants at day 7 post-treatment (mean±SEM)” value in the test on Argentine ants [4] stood at 65.8±11.0.

Turning to `N#Cc1nn(-c2c(Cl)cc(C(F)(F)F)cc2Cl)c(N)c1[S+]([O-])C(F)(F)F` (stereo not shown) [fipronil only, fipronil], in the test on Argentine ants [4], the “cumulative number of dead ants at day 7 post-treatment (mean±SEM)” value is recorded as 291±27.1.
